Test results: ChEMBL document CHEMBL4507297, “Data for DCP probe PF-04457845” (2021)

Legend:
[1] = target: Serine/threonine-protein kinase pim-3 (Homo sapiens) (UniProt Q86V86); details: Compound concentration 1000.0 nM
[2] = system: Hepatocyte growth factor receptor (Homo sapiens), P08581 [M1250T]; details: Compound concentration 1000.0 nM
[3] = target: Mitogen-activated protein kinase 13 (Homo sapiens) (UniProt O15264); details: Compound concentration 1000.0 nM
[4] = target: Ribosomal protein S6 kinase alpha-4 (Homo sapiens) (UniProt O75676); details: Compound concentration 1000.0 nM
[5] = target: Proto-oncogene tyrosine-protein kinase ROS (Homo sapiens) (UniProt P08922); details: Compound concentration 1000.0 nM
[6] = target: Bone morphogenetic protein receptor type-2 (Homo sapiens) (UniProt Q13873); details: Compound concentration 1000.0 nM
[7] = target: GABA-A receptor; anion channel (Rattus norvegicus) (UniProt O09028+P15431+P18506+P18508+P19969+P20236+P23574+P23576+P28471+P28473+P30191+P62813+P63079+P63138+Q91ZM7+Q9ES14); details: Compound concentration 10.0 uM
[8] = target: Mitogen-activated protein kinase kinase kinase kinase 5 (Homo sapiens) (UniProt Q9Y4K4); details: Compound concentration 1000.0 nM
Chain of Mitogen-activated protein kinase kinase kinase kinase 5 (Homo sapiens) (Q9Y4K4 whole entry, looked up): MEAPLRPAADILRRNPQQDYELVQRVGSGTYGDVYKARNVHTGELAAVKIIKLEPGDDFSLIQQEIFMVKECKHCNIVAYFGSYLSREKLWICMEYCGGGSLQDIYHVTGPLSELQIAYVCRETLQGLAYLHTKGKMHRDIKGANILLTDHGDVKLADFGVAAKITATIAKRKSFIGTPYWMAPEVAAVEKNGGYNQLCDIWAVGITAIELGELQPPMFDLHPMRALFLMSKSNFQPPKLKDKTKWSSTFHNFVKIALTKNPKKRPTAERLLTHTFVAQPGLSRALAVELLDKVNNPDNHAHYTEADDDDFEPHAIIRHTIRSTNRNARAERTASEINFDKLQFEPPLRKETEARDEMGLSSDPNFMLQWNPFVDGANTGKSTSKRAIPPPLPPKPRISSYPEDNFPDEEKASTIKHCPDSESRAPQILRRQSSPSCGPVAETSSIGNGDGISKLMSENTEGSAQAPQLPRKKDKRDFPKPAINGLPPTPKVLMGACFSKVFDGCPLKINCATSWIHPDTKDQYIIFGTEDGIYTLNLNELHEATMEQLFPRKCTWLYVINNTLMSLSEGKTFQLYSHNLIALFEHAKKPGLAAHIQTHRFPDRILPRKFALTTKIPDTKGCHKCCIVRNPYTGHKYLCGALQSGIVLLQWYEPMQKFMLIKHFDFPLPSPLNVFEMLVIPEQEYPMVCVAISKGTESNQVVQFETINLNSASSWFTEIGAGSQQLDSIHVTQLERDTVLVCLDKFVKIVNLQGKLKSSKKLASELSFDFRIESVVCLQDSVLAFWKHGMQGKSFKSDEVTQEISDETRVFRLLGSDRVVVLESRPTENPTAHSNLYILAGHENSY

[9] = target: Protein kinase C delta type (Homo sapiens) (UniProt Q05655); details: Compound concentration 1000.0 nM
[10] = target: Serine/threonine-protein kinase 17A (Homo sapiens) (UniProt Q9UEE5); details: Compound concentration 1000.0 nM
[11] = system: Phosphatidylinositol 4,5-bisphosphate 3-kinase catalytic subunit alpha isoform (Homo sapiens), P42336 [C420R]; details: Compound concentration 1000.0 nM
[12] = target: Beta-1 adrenergic receptor (Homo sapiens) (UniProt P08588); details: Compound concentration 10.0 uM
[13] = target: SRSF protein kinase 1 (Homo sapiens) (UniProt Q96SB4); details: Compound concentration 1000.0 nM
[14] = target: STE20/SPS1-related proline-alanine-rich protein kinase (Homo sapiens) (UniProt Q9UEW8); details: Compound concentration 1000.0 nM
[15] = target: Sigma non-opioid intracellular receptor 1 (Homo sapiens, UniProt Q99720); details: Compound concentration 10.0 uM
[16] = target: Serine/threonine-protein kinase PAK 3 (Homo sapiens) (UniProt O75914); details: Compound concentration 1000.0 nM
[17] = target: Fibroblast growth factor receptor 3 (Homo sapiens) (UniProt P22607); details: Compound concentration 1000.0 nM
[18] = target: Leukocyte tyrosine kinase receptor (Homo sapiens) (UniProt P29376); details: Compound concentration 1000.0 nM
Chain of Leukocyte tyrosine kinase receptor (Homo sapiens) (P29376 whole entry): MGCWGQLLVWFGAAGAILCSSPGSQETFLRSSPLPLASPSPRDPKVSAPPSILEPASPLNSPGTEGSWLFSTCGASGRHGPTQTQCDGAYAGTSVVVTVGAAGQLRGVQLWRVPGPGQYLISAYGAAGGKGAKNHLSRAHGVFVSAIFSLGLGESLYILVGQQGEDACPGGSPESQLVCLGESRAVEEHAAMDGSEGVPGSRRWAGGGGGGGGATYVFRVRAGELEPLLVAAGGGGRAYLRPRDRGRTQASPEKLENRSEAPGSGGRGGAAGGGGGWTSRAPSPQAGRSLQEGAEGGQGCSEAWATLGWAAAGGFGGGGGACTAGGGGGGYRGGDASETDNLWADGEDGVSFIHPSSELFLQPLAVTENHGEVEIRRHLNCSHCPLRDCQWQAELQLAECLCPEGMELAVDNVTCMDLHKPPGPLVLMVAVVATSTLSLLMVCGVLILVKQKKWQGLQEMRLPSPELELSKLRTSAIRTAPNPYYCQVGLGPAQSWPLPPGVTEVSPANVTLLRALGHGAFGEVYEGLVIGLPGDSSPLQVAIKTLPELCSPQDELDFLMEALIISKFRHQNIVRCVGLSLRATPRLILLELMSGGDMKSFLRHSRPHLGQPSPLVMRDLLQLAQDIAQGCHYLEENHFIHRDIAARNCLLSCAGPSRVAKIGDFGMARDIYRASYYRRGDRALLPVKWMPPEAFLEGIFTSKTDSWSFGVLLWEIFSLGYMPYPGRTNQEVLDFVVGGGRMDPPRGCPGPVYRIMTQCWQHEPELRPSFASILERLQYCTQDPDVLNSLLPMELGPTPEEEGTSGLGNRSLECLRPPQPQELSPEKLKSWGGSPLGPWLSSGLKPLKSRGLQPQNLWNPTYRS

[19] = target: Protein-tyrosine kinase 6 (Homo sapiens) (UniProt Q13882); details: Compound concentration 1000.0 nM
[20] = target: Mitogen-activated protein kinase 9 (Homo sapiens) (UniProt P45984); details: Compound concentration 1000.0 nM
[21] = target: Serine/threonine-protein kinase ULK2 (Homo sapiens) (UniProt Q8IYT8); details: Compound concentration 1000.0 nM
[22] = target: Ephrin type-B receptor 3 (Homo sapiens) (UniProt P54753); details: Compound concentration 1000.0 nM
[23] = target: Serine/threonine-protein kinase TNNI3K (Homo sapiens) (UniProt Q59H18); details: Compound concentration 1000.0 nM
[24] = target: Receptor-interacting serine/threonine-protein kinase 4 (Homo sapiens) (UniProt P57078); details: Compound concentration 1000.0 nM
[25] = target: Histamine H1 receptor (Homo sapiens) (UniProt P35367); details: Compound concentration 10.0 uM
[26] = target: Serine/threonine-protein kinase MARK1 (Homo sapiens) (UniProt Q9P0L2); details: Compound concentration 1000.0 nM
[27] = target: Proto-oncogene tyrosine-protein kinase receptor Ret (Homo sapiens) (UniProt P07949); details: Compound concentration 1000.0 nM
[28] = target: Protein kinase C theta type (Homo sapiens) (UniProt Q04759); details: Compound concentration 1000.0 nM
Chain of Protein kinase C theta type (Homo sapiens) (Q04759 whole entry, looked up, canonical isoform): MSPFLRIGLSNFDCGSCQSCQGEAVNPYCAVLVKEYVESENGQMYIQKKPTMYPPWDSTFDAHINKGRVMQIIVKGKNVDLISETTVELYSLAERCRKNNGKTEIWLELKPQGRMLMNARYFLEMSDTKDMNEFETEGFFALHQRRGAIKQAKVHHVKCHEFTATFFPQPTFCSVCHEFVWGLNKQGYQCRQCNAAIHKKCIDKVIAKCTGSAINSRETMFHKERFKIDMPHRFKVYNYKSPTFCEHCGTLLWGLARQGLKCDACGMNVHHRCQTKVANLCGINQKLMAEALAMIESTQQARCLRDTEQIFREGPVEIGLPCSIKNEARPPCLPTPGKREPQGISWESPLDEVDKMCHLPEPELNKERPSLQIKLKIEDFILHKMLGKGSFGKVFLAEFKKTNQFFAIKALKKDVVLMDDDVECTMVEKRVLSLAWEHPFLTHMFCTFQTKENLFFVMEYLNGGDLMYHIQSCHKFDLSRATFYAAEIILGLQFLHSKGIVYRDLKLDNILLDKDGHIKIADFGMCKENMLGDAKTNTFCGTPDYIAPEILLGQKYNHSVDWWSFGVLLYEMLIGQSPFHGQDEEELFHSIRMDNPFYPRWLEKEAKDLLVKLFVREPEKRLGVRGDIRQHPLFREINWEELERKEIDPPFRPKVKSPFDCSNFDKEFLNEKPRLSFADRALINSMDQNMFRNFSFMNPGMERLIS

[29] = target: Phosphorylase b kinase gamma catalytic chain, skeletal muscle/heart isoform (Homo sapiens) (UniProt Q16816); details: Compound concentration 1000.0 nM
Chain of Phosphorylase b kinase gamma catalytic chain, skeletal muscle/heart isoform (Homo sapiens) (Q16816 whole entry, looked up, canonical isoform): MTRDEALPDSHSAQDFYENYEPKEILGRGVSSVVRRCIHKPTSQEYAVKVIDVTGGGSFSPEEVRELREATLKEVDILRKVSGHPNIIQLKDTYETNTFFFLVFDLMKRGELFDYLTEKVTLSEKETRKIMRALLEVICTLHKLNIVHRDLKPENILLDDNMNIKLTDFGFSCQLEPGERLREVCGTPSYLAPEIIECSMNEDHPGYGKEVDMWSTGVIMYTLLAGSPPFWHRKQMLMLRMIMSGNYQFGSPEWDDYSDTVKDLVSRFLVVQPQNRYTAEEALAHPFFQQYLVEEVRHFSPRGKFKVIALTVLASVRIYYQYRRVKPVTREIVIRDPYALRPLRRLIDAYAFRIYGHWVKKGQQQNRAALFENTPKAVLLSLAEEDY

[30] = target: Casein kinase II subunit alpha' (Homo sapiens) (UniProt P19784); details: Compound concentration 1000.0 nM
[31] = target: Cyclin-dependent kinase 11A (Homo sapiens) (UniProt Q9UQ88); details: Compound concentration 1000.0 nM
[32] = target: 5-hydroxytryptamine receptor 7 (Homo sapiens) (UniProt P34969); details: Compound concentration 10.0 uM
[33] = target: Mitogen-activated protein kinase kinase kinase 9 (Homo sapiens) (UniProt P80192); details: Compound concentration 1000.0 nM
[34] = target: Serine/threonine-protein kinase Sgk1 (Homo sapiens) (UniProt O00141); details: Compound concentration 1000.0 nM
Chain of Serine/threonine-protein kinase Sgk1 (Homo sapiens) (O00141 whole entry): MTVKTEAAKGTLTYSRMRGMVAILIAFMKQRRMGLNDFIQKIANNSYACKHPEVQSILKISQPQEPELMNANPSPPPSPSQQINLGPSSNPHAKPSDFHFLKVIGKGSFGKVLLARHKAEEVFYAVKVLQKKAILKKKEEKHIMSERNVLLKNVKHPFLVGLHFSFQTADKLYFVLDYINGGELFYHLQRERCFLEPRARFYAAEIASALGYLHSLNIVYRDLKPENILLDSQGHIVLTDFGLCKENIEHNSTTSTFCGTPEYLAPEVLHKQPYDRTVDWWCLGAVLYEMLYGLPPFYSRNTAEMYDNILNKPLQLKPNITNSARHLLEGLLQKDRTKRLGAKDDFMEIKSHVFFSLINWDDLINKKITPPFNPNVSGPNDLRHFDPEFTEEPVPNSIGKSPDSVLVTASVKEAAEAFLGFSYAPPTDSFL

[35] = target: Dual specificity protein kinase CLK2 (Homo sapiens) (UniProt P49760); details: Compound concentration 1000.0 nM
[36] = target: Cyclin-dependent kinase 14 (Homo sapiens) (UniProt O94921); details: Compound concentration 1000.0 nM
[37] = target: Tyrosine-protein kinase Blk (Homo sapiens) (UniProt P51451); details: Compound concentration 1000.0 nM
[38] = target: Misshapen-like kinase 1 (Homo sapiens) (UniProt Q8N4C8); details: Compound concentration 1000.0 nM
[39] = target: Serine/threonine-protein kinase mTOR (Homo sapiens) (UniProt P42345); details: Compound concentration 1000.0 nM
[40] = target: Tyrosine-protein kinase FRK (Homo sapiens) (UniProt P42685); details: Compound concentration 1000.0 nM
[41] = target: Fibroblast growth factor receptor 2 (Homo sapiens) (UniProt P21802); details: Compound concentration 1000.0 nM
[42] = system: Tyrosine-protein kinase ABL1 (Homo sapiens), P00519 [Y253F]; details: Compound concentration 1000.0 nM
[43] = target: Eukaryotic translation initiation factor 2-alpha kinase 1 (Homo sapiens) (UniProt Q9BQI3); details: Compound concentration 1000.0 nM
[44] = target: Serine/threonine-protein kinase 36 (Homo sapiens) (UniProt Q9NRP7); details: Compound concentration 1000.0 nM
Chain of Serine/threonine-protein kinase 36 (Homo sapiens) (Q9NRP7 whole entry): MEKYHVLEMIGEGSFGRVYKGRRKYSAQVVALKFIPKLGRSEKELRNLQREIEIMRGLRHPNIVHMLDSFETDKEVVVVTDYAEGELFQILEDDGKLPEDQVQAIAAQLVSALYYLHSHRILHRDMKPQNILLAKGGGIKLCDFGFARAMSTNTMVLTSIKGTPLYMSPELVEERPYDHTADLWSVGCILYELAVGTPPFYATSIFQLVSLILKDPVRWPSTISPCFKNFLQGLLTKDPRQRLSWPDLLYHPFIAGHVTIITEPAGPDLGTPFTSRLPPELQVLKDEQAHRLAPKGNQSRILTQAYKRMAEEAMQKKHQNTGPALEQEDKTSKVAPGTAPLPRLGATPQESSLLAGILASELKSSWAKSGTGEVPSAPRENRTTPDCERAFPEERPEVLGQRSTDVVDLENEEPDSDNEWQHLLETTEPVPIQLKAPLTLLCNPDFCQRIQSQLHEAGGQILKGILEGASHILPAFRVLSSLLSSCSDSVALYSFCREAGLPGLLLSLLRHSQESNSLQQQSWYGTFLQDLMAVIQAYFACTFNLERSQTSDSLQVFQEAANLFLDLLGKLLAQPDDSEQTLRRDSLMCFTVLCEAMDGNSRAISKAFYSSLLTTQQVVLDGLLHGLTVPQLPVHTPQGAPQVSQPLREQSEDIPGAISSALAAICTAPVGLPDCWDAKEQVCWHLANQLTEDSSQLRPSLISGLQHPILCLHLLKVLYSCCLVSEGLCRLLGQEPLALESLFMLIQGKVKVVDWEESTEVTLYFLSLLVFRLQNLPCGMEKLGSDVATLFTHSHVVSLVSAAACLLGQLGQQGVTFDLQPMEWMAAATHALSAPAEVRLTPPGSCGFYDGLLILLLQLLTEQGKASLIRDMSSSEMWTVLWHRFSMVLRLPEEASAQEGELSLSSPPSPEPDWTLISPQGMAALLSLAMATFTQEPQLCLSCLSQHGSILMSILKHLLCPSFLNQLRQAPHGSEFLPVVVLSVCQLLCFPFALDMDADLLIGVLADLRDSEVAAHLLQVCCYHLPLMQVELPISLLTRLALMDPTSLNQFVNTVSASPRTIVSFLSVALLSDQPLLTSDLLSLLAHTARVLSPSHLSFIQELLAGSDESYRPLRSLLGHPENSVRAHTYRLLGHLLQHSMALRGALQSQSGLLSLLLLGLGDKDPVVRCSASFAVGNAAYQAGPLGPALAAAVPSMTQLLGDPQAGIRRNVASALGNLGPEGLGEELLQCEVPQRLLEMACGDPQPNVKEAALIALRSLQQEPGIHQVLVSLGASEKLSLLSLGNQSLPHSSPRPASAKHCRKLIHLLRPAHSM

**Q.** For `O=C(Nc1cccnn1)N1CC(C/C=C/c2cncc(Oc3ccc(C(F)(F)F)cn3)n2)C1`, which residual activity [1] is on record?
**A.** 100%

**Q.** And the residual activity [2]?
**A.** 100%

**Q.** And the residual activity [3]?
**A.** 100%

**Q.** And the residual activity [4]?
**A.** 92%

**Q.** What about the residual activity [5] of the same compound?
**A.** 100%

**Q.** And the residual activity [6]?
**A.** 76%

**Q.** What about the inhibition [7] of the same compound?
**A.** 17.3%

**Q.** And the residual activity [8]?
**A.** 94%

**Q.** What about the residual activity [9] of the same compound?
**A.** 100%

**Q.** And the residual activity [10]?
**A.** 100%

**Q.** And the residual activity [11]?
**A.** 66%

**Q.** And the inhibition [12]?
**A.** 1.97%

**Q.** What about the residual activity [13] of the same compound?
**A.** 82%

**Q.** What about the residual activity [14] of the same compound?
**A.** 77%

**Q.** What about the inhibition [15] of the same compound?
**A.** 32.2%

**Q.** And the residual activity [16]?
**A.** 100%

**Q.** What about the residual activity [17] of the same compound?
**A.** 97%

**Q.** And the residual activity [18]?
**A.** 100%

**Q.** And the residual activity [19]?
**A.** 91%

**Q.** What about the residual activity [20] of the same compound?
**A.** 72%

**Q.** What about the residual activity [21] of the same compound?
**A.** 73%

**Q.** And the residual activity [22]?
**A.** 100%

**Q.** What about the residual activity [23] of the same compound?
**A.** 100%

**Q.** What about the residual activity [24] of the same compound?
**A.** 74%

**Q.** And the inhibition [25]?
**A.** 30.9%

**Q.** What about the residual activity [26] of the same compound?
**A.** 100%

**Q.** What about the residual activity [27] of the same compound?
**A.** 100%

**Q.** And the residual activity [28]?
**A.** 100%

**Q.** What about the residual activity [29] of the same compound?
**A.** 100%

**Q.** What about the residual activity [30] of the same compound?
**A.** 100%

**Q.** What about the residual activity [31] of the same compound?
**A.** 100%

**Q.** And the inhibition [32]?
**A.** 1.18%

**Q.** And the residual activity [33]?
**A.** 100%

**Q.** And the residual activity [34]?
**A.** 85%

**Q.** And the residual activity [35]?
**A.** 100%

**Q.** And the residual activity [36]?
**A.** 100%

**Q.** And the residual activity [37]?
**A.** 65%

**Q.** What about the residual activity [38] of the same compound?
**A.** 100%

**Q.** What about the residual activity [39] of the same compound?
**A.** 100%

**Q.** And the residual activity [40]?
**A.** 82%

**Q.** And the residual activity [41]?
**A.** 100%

**Q.** And the residual activity [42]?
**A.** 92%

**Q.** What about the residual activity [43] of the same compound?
**A.** 100%

**Q.** What about the residual activity [44] of the same compound?
**A.** 100%

**Q.** Which residual activity [1] does the source give for `O=C(Nc1cccnn1)N1CCC(=Cc2cccc(Oc3ccc(C(F)(F)F)cn3)c2)CC1` here?
**A.** 79%

**Q.** What about the residual activity [2] of the same compound?
**A.** 100%

**Q.** And the residual activity [3]?
**A.** 86%

**Q.** What about the residual activity [4] of the same compound?
**A.** 100%

**Q.** What about the residual activity [5] of the same compound?
**A.** 80%

**Q.** What about the residual activity [6] of the same compound?
**A.** 100%

**Q.** And the inhibition [7]?
**A.** 7.35%

**Q.** What about the residual activity [8] of the same compound?
**A.** 100%

**Q.** And the residual activity [9]?
**A.** 93%

**Q.** And the residual activity [10]?
**A.** 79%

**Q.** What about the residual activity [11] of the same compound?
**A.** 100%

**Q.** What about the inhibition [12] of the same compound?
**A.** 16.5%

**Q.** And the residual activity [13]?
**A.** 97%

**Q.** What about the residual activity [14] of the same compound?
**A.** 100%

**Q.** What about the inhibition [15] of the same compound?
**A.** 88.5%

**Q.** And the residual activity [16]?
**A.** 73%

**Q.** And the residual activity [17]?
**A.** 83%

**Q.** And the residual activity [18]?
**A.** 74%

**Q.** And the residual activity [19]?
**A.** 100%

**Q.** What about the residual activity [20] of the same compound?
**A.** 100%

**Q.** And the residual activity [21]?
**A.** 100%

**Q.** And the residual activity [22]?
**A.** 81%

**Q.** And the residual activity [23]?
**A.** 100%

**Q.** What about the residual activity [24] of the same compound?
**A.** 100%

**Q.** And the inhibition [25]?
**A.** 27.2%

**Q.** And the residual activity [26]?
**A.** 84%

**Q.** What about the residual activity [27] of the same compound?
**A.** 100%

**Q.** And the residual activity [28]?
**A.** 67%

**Q.** What about the residual activity [29] of the same compound?
**A.** 100%

**Q.** What about the residual activity [30] of the same compound?
**A.** 100%

**Q.** And the residual activity [31]?
**A.** 82%

**Q.** And the inhibition [32]?
**A.** 37.5%

**Q.** And the residual activity [33]?
**A.** 100%

**Q.** And the residual activity [34]?
**A.** 100%

**Q.** What about the residual activity [35] of the same compound?
**A.** 66%

**Q.** And the residual activity [36]?
**A.** 89%

**Q.** What about the residual activity [37] of the same compound?
**A.** 100%

**Q.** And the residual activity [38]?
**A.** 100%

**Q.** What about the residual activity [39] of the same compound?
**A.** 87%

**Q.** And the residual activity [40]?
**A.** 100%

**Q.** And the residual activity [41]?
**A.** 96%

**Q.** And the residual activity [42]?
**A.** 100%

**Q.** And the residual activity [43]?
**A.** 100%

**Q.** What about the residual activity [44] of the same compound?
**A.** 100%
